Data taken from ChEMBL document CHEMBL4834448, “Toward the assembly and characterization of an encoded library hit confirmation platform: Bead-Assisted Ligand Isolation Mass Spectrometry (BALI-MS)” (Bioorg Med Chem, 2021).

molecular target: Bromodomain-containing protein 4 (Homo sapiens, UniProt O60885); assay: Displacement of Alexafluor 647-conjugated PFI-1 from N-terminal-His6-tagged human BRD4 BD1 domain (44 to 170 residues) incubated for 30 mins by fluorescence polarization assay

IC50	SMILES
2420 nM	Cc1nnc2ccc(N(C)CCC3CCNCC3)nn12
790 nM	CCc1nnc2ccc(N(C)C[C@H]3CC[C@H](N)CC3)nn12
> 30000 nM	CNCCN(C)c1ccc2nnc(C)n2n1
11800 nM	CN(C[C@H]1CC[C@H](N)CC1)c1ccc2nncn2n1
